Reference: patent publication US7192906B2, “Substituted pyrazole derivatives, production process thereof, and herbicide compositions containing the derivatives” (SDS Biotech K.K., priority 2001, dated 2007)

Assays:
Format in all cases: in vivo
Rice (Oryza sativa) = test: Test Example 3 paddy field treatment, crop phytotoxicity; conditions: active ingredient 1 kg per hectare, index 0-5; for Herbicidal activity OS (phytotoxicity to rice): paddy field treatment, transplanted rice Koshihikari, wettable powder, 21st day after the dropping; for Herbicidal activity (phytotoxicity) OS: Table 6, paddy field treatment, transplanted rice, 21st day after dropping
Description: (§1) A plastic pot of 130 cm^2 was filled with paddy soil, and soil puddling was carried out to adjust the submerged depth to 4 cm. Subsequently, seeds of Echinochloa crusgalli, Monochoria vaginalis, Ammannia multiflora and Scirpus juncoides were sowed, and rice (Oryza sative, variety: Koshihikari) of two-leaf period was transplanted by 2 rice plants of 1 stub per pot at a depth of 3 cm. On the 10th day after the transplantation, the wettable powder prepared in Formulation Example 1 was diluted with water such that the amount of the active ingredient became 1 kg per hectare, and then dropped to diffuse on the water surface. On the 21st day after the dropping, observation and evaluation were carried out according to the aforesaid criteria.
(§2) Herbicidal activity was evaluated based on the following criteria.
(§3) • 5: herbicidal effect of not less than 90%, or phytotoxicity of 90% or more • 4: herbicidal effect of not less than 70% and less than 90%, or phytotoxicity of 70% or more and less than 90% • 3: herbicidal effect of not less than 50% and less than 70%, or phytotoxicity of 50% or more and less than 70% • 2: herbicidal effect of not less than 30% and less than 50%, or phytotoxicity of 30% or more and less than 50% • 1: herbicidal effect of not less than 10% and less than 30%, or phytotoxicity of 10% or more and less than 30% • 0: herbicidal effect of not less than 0% and less than 10%, or phytotoxicity of 0% or more and less than 10%

Echinochloa crusgalli = test: Test Example 3 paddy field treatment; conditions: active ingredient 1 kg per hectare, index 0-5
Description: as §1, §2, §3

Scirpus juncoides = test: Test Example 3 paddy field treatment; conditions: active ingredient 1 kg per hectare, index 0-5
Description: as §1, §2, §3

Ammannia multiflora = test: Test Example 3 paddy field treatment; conditions: active ingredient 1 kg per hectare, index 0-5
Description: as §1, §2, §3

Monochoria vaginalis = test: Test Example 3 paddy field treatment; conditions: active ingredient 1 kg per hectare, index 0-5
Description: as §1, §2, §3

Chenopodium album [1] = test: Test Example 1 upland field foliage treatment; conditions: Table 4, upland field foliage treatment, index 0-5
Description: (§4) A plastic pot of 130 cm^2 was filled with upland soil. Subsequently, weed seeds of Setaria viridis, Digitaria adscendens, Chenopodium album and Stellaria media, and crop seeds of soybean (Glycine max) and wheat (Triticum aestivum), were sowed and covered with soil of about 1 cm thickness. On the 14th day after the sowing, the wettable powder prepared in Formulation Example 1 was diluted with water such that the amount of the active ingredient became 1 kg per hectare, and then uniformly applied to the plant leaf surfaces. On the 21st day after the application, observation and evaluation were carried out according to the criteria described below.
as §2, §3

Digitaria adscendens [2] = test: Test Example 1 upland field foliage treatment; conditions: Table 4, upland field foliage treatment, index 0-5
Description: as §4, §2, §3

Stellaria media [3] = test: Test Example 1 upland field foliage treatment; conditions: Table 4, upland field foliage treatment, index 0-5
Description: as §4, §2, §3

Setaria viridis [4] = test: Test Example 1 upland field foliage treatment; conditions: Table 4, upland field foliage treatment, index 0-5
Description: as §4, §2, §3

[5] = test system: wheat (Triticum aestivum); test: Test Example 1 upland field foliage treatment, crop phytotoxicity; conditions: Table 4, upland field foliage treatment, index 0-5
Description: as §4, §2, §3

soybean (Glycine max) [6] = test: as above; conditions: Table 4, upland field foliage treatment, index 0-5
Description: as §4, §2, §3

Chenopodium album [7] = test: Test Example 2 upland soil treatment; conditions: Table 5, upland soil treatment, index 0-5
Description: as §4, with “next” for “14th”, “soil surface.” for “plant leaf surfaces.”, “aforesaid criteria.” for “criteria described below.”
as §2, §3

Digitaria adscendens [8] = test: Test Example 2 upland soil treatment; conditions: Table 5, upland soil treatment, index 0-5
Description: as §4, with “next” for “14th”, “soil surface.” for “plant leaf surfaces.”, “aforesaid criteria.” for “criteria described below.”
as §2, §3

Stellaria media [9] = test: Test Example 2 upland soil treatment; conditions: Table 5, upland soil treatment, index 0-5
Description: as §4, with “next” for “14th”, “soil surface.” for “plant leaf surfaces.”, “aforesaid criteria.” for “criteria described below.”
as §2, §3

Setaria viridis [10] = test: Test Example 2 upland soil treatment; conditions: Table 5, upland soil treatment, index 0-5
Description: as §4, with “next” for “14th”, “soil surface.” for “plant leaf surfaces.”, “aforesaid criteria.” for “criteria described below.”
as §2, §3

[11] = test system: wheat (Triticum aestivum); test: Test Example 2 upland soil treatment, crop phytotoxicity; conditions: Table 5, upland soil treatment, index 0-5
Description: as §4, with “next” for “14th”, “soil surface.” for “plant leaf surfaces.”, “aforesaid criteria.” for “criteria described below.”
as §2, §3

soybean (Glycine max) [12] = test: as above; conditions: Table 5, upland soil treatment, index 0-5
Description: as §4, with “next” for “14th”, “soil surface.” for “plant leaf surfaces.”, “aforesaid criteria.” for “criteria described below.”
as §2, §3

[13] = paddy field treatment, wettable powder, 21st day after the dropping
[14] = Table 6, paddy field treatment, 21st day after dropping

Structure (SMILES)	Herbicidal activity CA: Chenopodium album (Chenopodium album [1])	Herbicidal activity DA: Digitaria adscendens (Digitaria adscendens [2])	Herbicidal activity SM: Stellaria media (Stellaria media [3])	Herbicidal activity SV: Setaria viridis (Setaria viridis [4])	Herbicidal activity (phytotoxicity) TA: Wheat (Triticum aestivum) [5]	Herbicidal activity (phytotoxicity) GM: Soybean (Glycine max) (soybean (Glycine max) [6])	Herbicidal activity (phytotoxicity) OS (Rice (Oryza sativa))	Herbicidal activity EC (Echinochloa crusgalli; [14])	Herbicidal activity SJ (Scirpus juncoides; [14])	Herbicidal activity AM (Ammannia multiflora; [14])	Herbicidal activity MV (Monochoria vaginalis; [14])	also measured
CNC(=O)C(Cn1cc(C)c(C2CCCCC2)n1)=NOC [Compound 11]	5 (herbicidal effect of not less than 90%, or phytotoxicity of 90% or more)	5 (herbicidal effect of not less than 90%, or phytotoxicity of 90% or more)	3 (herbicidal effect of not less than 50% and less than 70%, or phytotoxicity of 50% or more and less than 70%)	3 (herbicidal effect of not less than 50% and less than 70%, or phytotoxicity of 50% or more and less than 70%)	0 (herbicidal effect of not less than 0% and less than 10%, or phytotoxicity of 0% or more and less than 10%)	0 (herbicidal effect of not less than 0% and less than 10%, or phytotoxicity of 0% or more and less than 10%)	–	–	–	–	–	Herbicidal activity OS (phytotoxicity to rice) (Rice (Oryza sativa)): 1 (herbicidal effect of not less than 10% and less than 30%, or phytotoxicity of 10% or more and less than 30%); Herbicidal activity EC (Echinochloa crusgalli; [13]): 5 (herbicidal effect of not less than 90%, or phytotoxicity of 90% or more); Herbicidal activity SJ (Scirpus juncoides; [13]): 5 (herbicidal effect of not less than 90%, or phytotoxicity of 90% or more); Herbicidal activity AM (Ammannia multiflora; [13]): 5 (herbicidal effect of not less than 90%, or phytotoxicity of 90% or more); Herbicidal activity MV (Monochoria vaginalis; [13]): 5 (herbicidal effect of not less than 90%, or phytotoxicity of 90% or more)
CNC(=O)C(Cn1ccc(-c2ccccc2)n1)=NOC [Compound 13]	4 (herbicidal effect of not less than 70% and less than 90%, or phytotoxicity of 70% or more and less than 90%)	4 (herbicidal effect of not less than 70% and less than 90%, or phytotoxicity of 70% or more and less than 90%)	4 (herbicidal effect of not less than 70% and less than 90%, or phytotoxicity of 70% or more and less than 90%)	3 (herbicidal effect of not less than 50% and less than 70%, or phytotoxicity of 50% or more and less than 70%)	0 (herbicidal effect of not less than 0% and less than 10%, or phytotoxicity of 0% or more and less than 10%)	0 (herbicidal effect of not less than 0% and less than 10%, or phytotoxicity of 0% or more and less than 10%)	–	–	–	–	–	Herbicidal activity CA: Chenopodium album (Chenopodium album [7]): 5 (herbicidal effect of not less than 90%, or phytotoxicity of 90% or more); Herbicidal activity DA: Digitaria adscendens (Digitaria adscendens [8]): 4 (herbicidal effect of not less than 70% and less than 90%, or phytotoxicity of 70% or more and less than 90%); Herbicidal activity SM: Stellaria media (Stellaria media [9]): 5 (herbicidal effect of not less than 90%, or phytotoxicity of 90% or more); Herbicidal activity SV: Setaria viridis (Setaria viridis [10]): 4 (herbicidal effect of not less than 70% and less than 90%, or phytotoxicity of 70% or more and less than 90%); Herbicidal activity (phytotoxicity) TA: Wheat (Triticum aestivum) [11]: 0 (herbicidal effect of not less than 0% and less than 10%, or phytotoxicity of 0% or more and less than 10%); Herbicidal activity (phytotoxicity) GM: Soybean (Glycine max) (soybean (Glycine max) [12]): 0 (herbicidal effect of not less than 0% and less than 10%, or phytotoxicity of 0% or more and less than 10%)
CNC(=O)C(Cn1cc(C)c(-c2ccccc2F)n1)=NOC [Compound 42]	5 (herbicidal effect of not less than 90%, or phytotoxicity of 90% or more)	5 (herbicidal effect of not less than 90%, or phytotoxicity of 90% or more)	5 (herbicidal effect of not less than 90%, or phytotoxicity of 90% or more)	5 (herbicidal effect of not less than 90%, or phytotoxicity of 90% or more)	0 (herbicidal effect of not less than 0% and less than 10%, or phytotoxicity of 0% or more and less than 10%)	0 (herbicidal effect of not less than 0% and less than 10%, or phytotoxicity of 0% or more and less than 10%)	–	–	–	–	–	Herbicidal activity OS (phytotoxicity to rice) (Rice (Oryza sativa)): 0 (herbicidal effect of not less than 0% and less than 10%, or phytotoxicity of 0% or more and less than 10%); Herbicidal activity EC (Echinochloa crusgalli; [13]): 5 (herbicidal effect of not less than 90%, or phytotoxicity of 90% or more); Herbicidal activity SJ (Scirpus juncoides; [13]): 5 (herbicidal effect of not less than 90%, or phytotoxicity of 90% or more); Herbicidal activity AM (Ammannia multiflora; [13]): 5 (herbicidal effect of not less than 90%, or phytotoxicity of 90% or more); Herbicidal activity MV (Monochoria vaginalis; [13]): 5 (herbicidal effect of not less than 90%, or phytotoxicity of 90% or more)
CNC(=O)C(Cn1cc(C)c(-c2ccc(C#N)cc2)n1)=NOC [Compound 51]	–	–	–	–	–	–	–	–	–	–	–	Herbicidal activity CA: Chenopodium album (Chenopodium album [7]): 4 (herbicidal effect of not less than 70% and less than 90%, or phytotoxicity of 70% or more and less than 90%); Herbicidal activity DA: Digitaria adscendens (Digitaria adscendens [8]): 4 (herbicidal effect of not less than 70% and less than 90%, or phytotoxicity of 70% or more and less than 90%); Herbicidal activity SM: Stellaria media (Stellaria media [9]): 4 (herbicidal effect of not less than 70% and less than 90%, or phytotoxicity of 70% or more and less than 90%); Herbicidal activity SV: Setaria viridis (Setaria viridis [10]): 4 (herbicidal effect of not less than 70% and less than 90%, or phytotoxicity of 70% or more and less than 90%); Herbicidal activity (phytotoxicity) TA: Wheat (Triticum aestivum) [11]: 0 (herbicidal effect of not less than 0% and less than 10%, or phytotoxicity of 0% or more and less than 10%); Herbicidal activity (phytotoxicity) GM: Soybean (Glycine max) (soybean (Glycine max) [12]): 0 (herbicidal effect of not less than 0% and less than 10%, or phytotoxicity of 0% or more and less than 10%)
CNC(=O)C(Cn1cc(C)c(-c2ccc(OC)cc2OC(F)F)n1)=NOC [Compound 91]	–	–	–	–	–	–	0 (herbicidal effect of not less than 0% and less than 10%, or phytotoxicity of 0% or more and less than 10%)	5 (herbicidal effect of not less than 90%, or phytotoxicity of 90% or more)	4 (herbicidal effect of not less than 70% and less than 90%, or phytotoxicity of 70% or more and less than 90%)	5 (herbicidal effect of not less than 90%, or phytotoxicity of 90% or more)	5 (herbicidal effect of not less than 90%, or phytotoxicity of 90% or more)	–
CON=C(Cn1cc(C)c(-c2ccccc2)n1)C(=O)N1CCCCC1 [Compound 119]	–	–	–	–	–	–	0 (herbicidal effect of not less than 0% and less than 10%, or phytotoxicity of 0% or more and less than 10%)	3 (herbicidal effect of not less than 50% and less than 70%, or phytotoxicity of 50% or more and less than 70%)	3 (herbicidal effect of not less than 50% and less than 70%, or phytotoxicity of 50% or more and less than 70%)	4 (herbicidal effect of not less than 70% and less than 90%, or phytotoxicity of 70% or more and less than 90%)	4 (herbicidal effect of not less than 70% and less than 90%, or phytotoxicity of 70% or more and less than 90%)	–
CON=C(Cn1cc(C)c(-c2ccccc2)n1)C(=O)NNC(=O)OC [Compound 123]	–	–	–	–	–	–	0 (herbicidal effect of not less than 0% and less than 10%, or phytotoxicity of 0% or more and less than 10%)	3 (herbicidal effect of not less than 50% and less than 70%, or phytotoxicity of 50% or more and less than 70%)	3 (herbicidal effect of not less than 50% and less than 70%, or phytotoxicity of 50% or more and less than 70%)	4 (herbicidal effect of not less than 70% and less than 90%, or phytotoxicity of 70% or more and less than 90%)	4 (herbicidal effect of not less than 70% and less than 90%, or phytotoxicity of 70% or more and less than 90%)	–
